US20240228512A1, “ACYCLIC OXAZEPINE COMPOUNDS COMPRISING A 6-AZA MOIETY AND USES THEREOF” (Genentech, Inc., priority 2022, published 2024)
Where two headings read alike, the source gives them in different places.

Legend:
SW620 cells = assay: SW620 3D proliferation assay (CellTiter-Glo); assay type: cell-based; conditions: SW620, 3D culture, 7 days, read-out: SW620 CTG IC50
Method in brief: (§1)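 Cells were seeded in ultra-low attachment plates (3000 or 1000 cells/well for 96- or 384-well format) in RPMI-1640, 10% FBS, 2 mM L-glutamine and cultured overnight at 37 °C/5% CO2 to form spheroids. Compounds were added by 333-fold dilution from DMSO for 7 days. Viability was read as CellTiter-Glo 3D ATP luminescence, with IC50 from a 4-parameter logistic fit.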

[1] = molecular target: recombinant human KRAS wild type (SOS1-mediated nucleotide exchange) (Homo sapiens (Human), UniProt P01116); assay: KRAS biochemical assay, BODIPY-GDP exchange TR-FRET (WT-GDP HTRF)
[2] = molecular target: recombinant human mutant KRas G12V (SOS1-mediated nucleotide exchange) (Homo sapiens (Human), UniProt P01116, G12V); assay: KRAS biochemical assay, BODIPY-GDP exchange TR-FRET (G12V-GDP HTRF)
SW480 cells = assay: SW480 CTG proliferation assay; assay type: cell-based; conditions: Homo sapiens
HPAC cells = assay: HPAC 3D proliferation assay (CellTiter-Glo); assay type: cell-based; conditions: 3D culture, 7 days, read-out: HPAC CTG IC50
Method in brief: as §1

SW620 PERK = SW620 PERK assay; assay type: cell-based
H1975 cells = assay: H1975 CTG proliferation assay; assay type: cell-based
[3] = Homo sapiens, SW-620, SW620, PERK
[4] = Homo sapiens, NCI-H1975, H1975, CTG

recombinant human KRAS wild type (SOS1-mediated nucleotide exchange), sequence (P01116-2 other isoform, or with tags, fused parts or gaps): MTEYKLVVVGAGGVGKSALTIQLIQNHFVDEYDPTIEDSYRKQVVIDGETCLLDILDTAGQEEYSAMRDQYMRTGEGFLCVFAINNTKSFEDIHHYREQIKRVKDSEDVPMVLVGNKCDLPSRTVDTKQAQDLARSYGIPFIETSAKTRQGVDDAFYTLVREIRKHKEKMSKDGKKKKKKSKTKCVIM
recombinant human mutant KRas G12V (SOS1-mediated nucleotide exchange), sequence (P01116-2 other isoform, or with tags, fused parts or gaps G12V): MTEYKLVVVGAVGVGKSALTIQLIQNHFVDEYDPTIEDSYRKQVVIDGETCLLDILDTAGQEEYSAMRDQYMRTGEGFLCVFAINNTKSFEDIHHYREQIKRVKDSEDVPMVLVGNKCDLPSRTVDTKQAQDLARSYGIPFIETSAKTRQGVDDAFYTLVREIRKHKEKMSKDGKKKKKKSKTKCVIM

| Compound | IC50 (SW620 cells; Homo sapiens, SW-620, 168 h) [nM] | IC50 [1] [nM] | IC50 [2] [nM] | IC50 (SW480 cells) [nM] | IC50 (HPAC cells; Homo sapiens, 168 h) [nM] | IC50 (SW620 PERK; [3]) [nM] | IC50 (H1975 cells; [4]) [nM] | IC50 (SW620 cells) [nM] | IC50 (HPAC cells) [nM] | IC50 (SW620 PERK; SW620, PERK) [nM] | IC50 (H1975 cells; H1975, CTG) [nM] |
| --- | --- | --- | --- | --- | --- | --- | --- | --- | --- | --- | --- |
| C[C@H](c1cccnc1N)N1CCOc2nc(-c3cc(O)cc4ccccc34)c(F)c3nc(OC[C@@]45CCCN4C[C@H](F)C5)nc1c23 [Example 26, 4-(10-((R)-1-(2-aminopyridin-3-yl)ethyl)-4-fluoro-2-(((2R,7aS)-2-fluorotetrahydro-1H-pyrrolizin-7a(5H)-yl)methoxy)-9,10-dihydro-8H-7-oxa-1,3,6,10-tetraazacyclohepta[de]naphthalen-5-yl)naphthalen-2-ol] | 32.3 | 0.26 | 0.11 | 350 | 416 | 19.3 | 77 | – | – | – | – |
| Cc1cc(N)nc(-c2nc3c4c(nc(OC[C@@]56CCCN5C[C@]5(CC5(F)F)C6)nc4c2F)N([C@H](C)c2cccnc2N)CCO3)c1C(F)(F)F [Example 635] | 3.55 | 0.325 | 0.21 | > 200 | 11.8 | 2.15 | 2.54 | – | – | – | – |
| Cc1c(F)c(N)nc(-c2nc3c4c(nc(OC[C@@]56CCCN5C[C@H](F)C6)nc4c2F)N([C@H](C)c2cccnc2N)CCO3)c1C(F)(F)F [Example 604, 6-(10-((R)-1-(2-aminopyridin-3-yl)ethyl)-4-fluoro-2-(((2R,7aS)-2-fluorotetrahydro-1H-pyrrolizin-7a(5H)-yl)methoxy)-9,10-dihydro-8H-7-oxa-1,3,6,10-tetraazacyclohepta[de]naphthalen-5-yl)-3-fluoro-4-methyl-5-(trifluoromethyl)pyridin-2-amine] | 5.33 | 0.225 | 0.099 | > 200 | 26.5 | 2.93 | 283 | – | – | – | – |
| C#Cc1cccc2cc(O)cc(-c3nc4c5c(nc(OC[C@@]67CCCN6C[C@H](F)C7)nc5c3F)N([C@H](C)c3cccnc3N)CCO4)c12 [Example 7, 4-(10-((R)-1-(2-aminopyridin-3-yl)ethyl)-4-fluoro-2-(((2R,7aS)-2-fluorotetrahydro-1H-pyrrolizin-7a(5H)-yl)methoxy)-9,10-dihydro-8H-7-oxa-1,3,6,10-tetraazacyclohepta[de]naphthalen-5-yl)-5-ethynyinaphthalen-2-ol] | 1.96 | 0.12 | 0.04 | 12 | 19.3 | 1.13 | 2.59 | – | – | – | – |
| Cc1c(F)c(N)cc(-c2nc3c4c(nc(OC[C@@]56CCCN5C[C@]5(CC5(F)F)C6)nc4c2F)N([C@H](C)c2cncnc2N)CCO3)c1C(F)(F)F [Example 616] | 8.46 | 0.195 | 0.09 | > 200 | 50.4 | 4.64 | 2.59 | – | – | – | – |
| Cc1cc(N)nc(-c2nc3c4c(nc(OC[C@@]56CCCN5C[C@H](F)C6)nc4c2F)N([C@H](C)c2cccnc2N)CCO3)c1C(F)(F)F [Example 6, 6-(10-((R)-1-(2-aminopyridin-3-yl)ethyl)-4-fluoro-2-(((2R,7aS)-2-fluorotetrahydro-1H-pyrrolizin-7a(5H)-yl)methoxy)-9,10-dihydro-8H-7-oxa-1,3,6,10-tetraazacyclohepta[de]naphthalen-5-yl)-4-methyl-5-(trifluoromethyl)pyridin-2-amine] | 13.4 | 0.215 | 0.21 | 120 | 43.7 | 7.68 | 7.23 | – | – | – | – |
| Cc1cc(N)c(Cl)c(-c2nc3c4c(nc(OC[C@@]56CCCN5C[C@H](F)C6)nc4c2F)N([C@H](C)c2cccnc2N)CCO3)c1C(F)(F)F (single isomer, unassigned) [Example 21b] | – | 0.07 | 0.05 | 2.4 | – | – | – | 1 | 4.43 | 0.555 | 2.59 |
| C#Cc1c(F)ccc2cc(O)cc(-c3nc4c5c(nc(OC[C@@]67CCCN6C[C@H](F)C7)nc5c3F)N([C@H](C)c3cccnc3N)CCO4)c12 [Example 2, 4-(10-((R)-1-(2-aminopyridin-3-yl)ethyl)-4-fluoro-2-(((2R,7aS)-2-fluorotetrahydro-1H-pyrrolizin-7a(5H)-yl)methoxy)-9,10-dihydro-8H-7-oxa-1,3,6,10-tetraazacyclohepta[de]naphthalen-5-yl)-5-ethynyl-6-fluoronaphthalen-2-ol] | 2.41 | 0.0671 | 0.08 | 2.9 | 20.8 | 1.29 | 2.59 | – | – | – | – |
| Cc1c(F)c(N)cc(-c2nc3c4c(nc(OC[C@@]56CCCN5C[C@H](F)C6)nc4c2F)N([C@H](C)c2cccnc2N)CCO3)c1C(F)(F)F [Example 5, 3-((R)-1-(5-(5-amino-4-fluoro-3-methyl-2-(trifluoromethyl)phenyl)-4-fluoro-2-(((2R,7aS)-2-fluorotetrahydro-1H-pyrrolizin-7a(5H)-yl)methoxy)-8,9-dihydro-10H-7-oxa-1,3,6,10-tetraazacyclohepta[de]naphthalen-10-yl)ethyl)pyridin-2-amine] | 1.14 | 0.0529 | 0.045 | 5.8 | 5.06 | 0.72 | 12.8 | – | – | – | – |
| Cc1nc(N)cc(-c2nc3c4c(nc(OC[C@@]56CCCN5C[C@]5(CC5(F)F)C6)nc4c2F)N([C@H](C)c2cccnc2N)CCO3)c1C(F)(F)F [Example 615] | 1.92 | 0.175 | 0.14 | 18 | 12.3 | 2.02 | 951 | – | – | – | – |
| Cc1nc(N)cc(-c2nc3c4c(nc(OC[C@@]56CCCN5C[C@H](F)C6)nc4c2F)N([C@H](C)c2cccnc2N)CCO3)c1C(F)(F)F [Example 14, 4-(10-((R)-1-(2-aminopyridin-3-yl)ethyl)-4-fluoro-2-(((2R,7aS)-2-fluorotetrahydro-1H-pyrrolizin-7a(5H)-yl)methoxy)-9,10-dihydro-8H-7-oxa-1,3,6,10-tetraazacyclohepta[de]naphthalen-5-yl)-6-methyl-5-(trifluoromethyl)pyridin-2-amine] | 13.9 | 0.434 | 0.17 | 130 | 76 | 2.65 | 116 | – | – | – | – |
| Cc1c(F)c(N)c(F)c(-c2nc3c4c(nc(OC[C@@]56CCCN5C[C@H](F)C6)nc4c2Cl)N([C@H](C)c2cccnc2N)CCO3)c1C(F)(F)F (atropisomer, axis not shown; (aS)) [Example 629a, 3-((R)-1-((R)-5-(3-amino-2,4-difluoro-5-methyl-6-(trifluoromethyl)phenyl)-4-chloro-2-(((2R,7aS)-2-fluorotetrahydro-1H-pyrrolizin-7a(5H)-yl)methoxy)-8,9-dihydro-10H-7-oxa-1,3,6,10-tetraazacyclohepta[de]naphthalen-10-yl)ethyl)pyridin-2-amine] | 1.71 | 0.178 | 0.069 | 20 | 15.3 | 1.33 | 176 | – | – | – | – |
| Cc1cc(N)c(F)c(-c2nc3c4c(nc(OC[C@@]56CCCN5C[C@]5(CC5(F)F)C6)nc4c2F)N([C@H](C)c2nccnc2N)CCO3)c1C(F)(F)F [Example 609] | 5.72 | 0.415 | 0.21 | 58 | 34 | 5.62 | 14500 | – | – | – | – |
